Reference: article PMC8308625, “Preclinical Studies in Anti-Trypanosomatidae Drug Development” (Pharmaceuticals, 2021)
Where two headings read alike, the source gives them in different places.

What was measured:
[1] = Acute oral toxicity (up and down test); conditions: mice
[2] = test system: Cruzipain; conditions: mechanism of action; ref [13],[14],[15]; cited from earlier work
[3] = test system: T. cruzi; design: method as in PMID 31652542; conditions: mice, ref [16], cited from earlier work
[4] = test system: human red blood cells; assay: Red Blood Cell Lysis Assay; assay type: cell-based; conditions: 50 µM
Description: To assess a compound’s hemolytic activity the Red Blood Cell Lysis Assay (national blood bank) was performed. A compound-containing erythrocyte (2% (w/v)) suspension prepared in phosphate-buffered saline pH 7.4 was incubated for 24 h at 37 °C and the amount of hemoglobin released into the supernatant determined spectrophotometrically using a Varioskan TM Flash Multimode Reader (Thermo ScientificTM, MA, USA) set to a wavelength of 405 nm. The % hemolysis was determined using the follows equation: % released hemoglobin = [(A1 − A0)/(A1water)] × 100, where A1 and A0 represent the absorbance at 405 nm of the test sample at 0 and 24 h, and A1water the absorbance at 405 nm of water at 24 h. The experiments were performed by quintuplicate. […]

[5] = design: method as in PMID 24749923, PMID 26492824, PMID 25512408; conditions: ref [13],[14],[15]; cited from earlier work
[6] = test system: L. amazonensis; assay: Growth inhibition of L. amazonensis promastigotes (resazurin); conditions: for Selectivity Index MΦ/L. amaz: EC50 mammalian cell line/EC50 L. amazonensis; for EC50: Leishmania amazonensis, read-out: EC50 ± SD L. amaz
[7] = test system: human macrophages; assay: Cytotoxicity in human macrophages; assay type: cell-based; conditions: 50 µM
Description: Differentiation of THP-1 to produce macrophage-like cells was carried out using phorbol 12-myristate-13-acetate (Sigma-Aldrich, Deisenhofen, Germany).
All assays were performed in triplicate.

[8] = cited from earlier work; for Ames Test (mutagenicity): ref [13],[14],[15]
[9] = mice, up and down test, cited from earlier work
[10] = test system: T. brucei; assay: Growth inhibition of T. brucei bloodstream form trypomastigotes (resazurin); assay type: cell-based, Trypanosoma brucei brucei; conditions: for EC50: Trypanosoma brucei, read-out: EC50 ± SD T. brucei
Description: Compounds were dissolved in dimethylsulfoxide (DMSO).

[11] = test system: L. braziliensis; conditions: read-out: EC50 ± SD L. brazils, cited from earlier work
[12] = test system: L. amazonensis; assay: Murine model of cutaneous Leishmaniasis; conditions: BALB/c mice, oral
Description: For the in vivo model of cutaneous disease, 1 × 10^7 amastigote parasites of L. amazonensis PH8 were inoculated in the upper part of the left paw of the mice. […] The mice were sacrificed 30 days post-infection. The antiparasitic effect was evaluated by two methods: the weekly evolution of the diameter of the infected paw throughout the experiment (Figure 2C) and the quantification of the parasite load in the infected area at the end of the experiment (Figure 2A).
Golden hamsters (Mesocritus auratus) were used to maintain L. amazonensis infections with the parasites passage every 6 to 8 weeks. BALB/c mice (female and male) supplied by the IFFA-CREDO, Lyon, France, and bred at the Instituto de Investigaciones en Ciencias de la Salud, Asuncion, Paraguay, were inoculated in the right hind footpad with 2 × 10^6 L. amazonensis amastigotes in 100 µL PBS obtained from donor hamsters. Disease progression was monitored by the measurement of lesion diameters for 7 to 12 weeks. […] Two days before the administration of the drug, the mice were randomly divided into groups of eight. […] The animals were euthanized two weeks after cessation of treatments to assess parasitological loads in the infected footpad. […] Following incubation at 27 °C for seven days, cultures were examined with an inverted microscope (Olympus, Tokyo, Japan) at a magnification of ×400. The number of parasites per gram in the lesion was calculated by the following equation: Parasite burden = geometric mean of the number of parasites in each duplicate/(number of microscope field counted × weight of lesion × (25,000) hemocytometer correction factor) [37]. […] Comparisons of parasite suppression in the infected footpads of the untreated and drug-treated groups were performed by Student’s t-test. One-way ANOVA (as a non-parametric statistical test) was also used on ranks.

[13] = test system: L. infantum reference strain (MHOM/BR/2002/LPC-RPV); assay: Growth inhibition of L. infantum reference strain promastigotes (resazurin); conditions: for Selectivity Index MΦ/Lin–Ref: EC50 mammalian cell line/EC50 L. infantum reference strain; for EC50: Leishmania infantum, read-out: EC50 ± SD Lin–Ref
[14] = test system: J774.1 murine macrophages; assay: Nonspecific cytotoxicity in murine macrophages (MTT); conditions: Mus musculus, J774.1, read-out: EC50 ± SD MΦ
Description: Cell viability was then assessed using the 3-(4,5-dimethylthiazol-2-yl)-2,5-diphenyltetrazolium bromide (MTT) colorimetric assay [1]. […] All assays were performed in triplicate [35].

[15] = test system: T. cruzi; conditions: cited from earlier work
[16] = test system: fibroblasts (NCTC929); assay: Cytotoxicity in fibroblasts; assay type: cell-based; conditions: NCTC-929, read-out: EC50 ± SD Fibroblasts
Description: Table 5 Cytotoxicity and selectivity index of reference drugs and selected molecules. | column: EC50 ± SD (µM) ^a / Fibroblasts

[17] = cited from earlier work
[18] = test system: L. infantum amastigote; assay: Single dose study in the amastigote form of L. infantum; assay type: cell-based; conditions: Leishmania infantum, single dose 10 µM
[19] = test system: L. infantum veterinary isolate (MCAN_UY_2015_gPL8); assay: Growth inhibition of L. infantum veterinary isolate promastigotes (resazurin); conditions: for Selectivity Index MΦ/Lin–Vet: EC50 mammalian cell line/EC50 L. infantum veterinary isolate; for EC50: Leishmania infantum, read-out: EC50 ± SD Lin–Vet
[20] = biological target: T1, Triosephosphate isomerase from T. brucei (TbTIM) (Trypanosoma brucei brucei, UniProt P04789); assay: TbTIM inactivation; assay type: biochemical
T1 construct: made in house; host or cells: Escherichia coli
T1 sequence (P04789 whole entry): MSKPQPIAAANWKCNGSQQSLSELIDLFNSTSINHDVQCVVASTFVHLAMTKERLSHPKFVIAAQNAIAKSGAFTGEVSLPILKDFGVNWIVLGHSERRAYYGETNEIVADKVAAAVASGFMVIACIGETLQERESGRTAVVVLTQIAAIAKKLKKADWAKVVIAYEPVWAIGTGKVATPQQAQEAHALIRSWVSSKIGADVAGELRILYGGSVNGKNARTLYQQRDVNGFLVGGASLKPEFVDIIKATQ
Description: (§1) Table S3. Activity of compound 796 in Triosephosphate isomerase from L. mexicana (LmTIM) […]
(§2) Expression and purification of proteins: TbTIM, LmTIM were expressed in Escherichia coli and purified as described in the literature. After purification, the enzyme, disolved in 100 mM triethanolamine, 10 mM EDTA and 1 mM dithiothreitol (pH 8), was precipitated with ammonium sulfate (75% saturation) and stored at 4 _C. Before use, extensive dialysis against 100 mM triethanolamine/10 mM EDTA (pH 7.4) was performed. Protein concentration was determined by absorbance at 280 nm (ε= 36,440 M-1cm-1) TbTIM and LmTIM. Enzymatic activity assays: Enzymatic activity was determined following the conversion of glyceraldehyde 3‐phosphate into dihydroxyacetone phosphate. The decrease in absorbance at 340 nm was followed in a multi‐cell Cary spectrophotometer at 25 °C. The reaction mixture (1 mL, pH 7.4) contained 100 mM triethanolamine, 10 mM EDTA, 0.2 mM NADH, 1 mM glyceraldehyde 3‐phosphate and 0.9 units of _‐glycerol phosphate dehydrogenase. The reaction was initiated by the addition of 5 ng/mL of the TbTIM. For the inhibition studies, TcTIM, LmTIM and TbTIM were incubated at a concentration of 5 mg/mL in a buffer containing 100 mM triethanolamine, 10 mM EDTA, pH 7.4 and 10% of DMSO at 36 _C. The mixture also contained the compounds at the indicated concentrations. Compounds were dissolved in DMSO. […]

[21] = in vivo; conditions: male, B6D2F1, mouse, po, 2000 mg/kg
[22] = biological target: T2, Triosephosphate isomerase from L. mexicana (LmTIM) (Leishmania mexicana, UniProt P48499); assay: LmTIM inactivation; assay type: biochemical
T2 construct: made in house; host or cells: Escherichia coli
T2 sequence (P48499 whole entry): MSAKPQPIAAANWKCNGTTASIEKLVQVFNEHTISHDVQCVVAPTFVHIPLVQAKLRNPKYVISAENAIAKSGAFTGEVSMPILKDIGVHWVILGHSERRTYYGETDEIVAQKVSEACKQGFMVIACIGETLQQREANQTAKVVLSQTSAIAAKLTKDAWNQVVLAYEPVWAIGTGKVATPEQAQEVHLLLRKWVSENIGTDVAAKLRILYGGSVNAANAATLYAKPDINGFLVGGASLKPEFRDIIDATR
Description: as §1, §2

[23] = Liver fraction stability (cytosolic and microsomal fraction of rat hepatocytes, TLC); assay type: in vitro ADME; conditions: rat hepatocyte cytosolic and microsomal fractions, 37 °C
Description: For the determination of the stability in the different fractions, (cytosolic and microsomal of rat hepatocytes) the different proteins present in them were used. The fractions were prepared according to the previously reported protocol. […] The final concentration of the molecules in the aqueous medium was 400 µM and prepared from a stock in DMSO of 40 mM. The solutions were homogenized and incubated at 37 °C at 10 min, 30 min, 1 h, 2 h, 3 h and 4 h. (by TLC). For this, it was incubated at 37 °C in a volume of 1 mL: 2.5 µL of 30 mM Magnesium Chloride (MgCl); 2.5 µL of 40 mM Nicotinamide Adenosine Dinucleotide Phosphate (NADP+); 5 µL of 350 mM Glucose 6- Phosphate (Glu6P); 5 µL of Glucose 6- phosphate dehydrogenase (Glu6PD) 50 U/mL, 5 µL of the stock of 40 mM compounds and the volume of the Phosphate Buffer (pH = 7) must be such that cytosolic (CF) and microsomal (MF) fraction FC and FM present a final protein concentration of 0.1 mg/mL. After that, the stability of compounds 796 and 1019 in the cytosolic (FCF) and microsomal (FMF) fraction of rat hepatocytes was evaluated at different times (1–4 h). Thin-layer chromatography of ethyl acetate extracts was conducted to evaluate the presence of decomposition products. The mobile phase used for these TLCs was n-hexane: ethyl acetate (7: 3).

[24] = biological target: triosephosphate isomerase; conditions: mechanism of action; ref [13],[14],[15]; cited from earlier work
[25] = Table 4, curcuminoids, ref [14]
[26] = Table 4, curcuminoids, ref [14], read-out: EC50 ± SD T. cruzi
[27] = epimastigotes, multiple strains, ref [13],[14],[15], read-out: EC50 in vitro anti-T. cruzi, epimastigotes

Row | SMILES | survival in the acute toxicity model in vivo [1] | cytotoxicity in human red blood cells [4] | Stability in vitro (microsomal, plasma, other solutions) [5] | Selectivity Index MΦ/L. amaz [6] | EC50 [6] | cytotoxicity in human macrophages [7] | Ames Test (mutagenicity) [8] | Selectivity Index MΦ/Lin–Ref [13] | EC50 [13] | EC50 [14] | EC50 [16] | inhibition at 10 µM [18] | Selectivity Index MΦ/Lin–Vet [19] | EC50 [19] | EC50 [11, 25] | EC50 [15, 26] | EC50 [15, 27] | other results
1 | C=CCn1c(C(=O)N2CCN(C/C=C/c3ccccc3)CC2)cs\c1=N/N=C/C=C/c1ccco1 [Compound 314] | 100% | did not see any inhibition | High | 3 | 12 ± 5 µM | did not see any inhibition | No | 23 | 1.3 ± 0.5 µM | 30 ± 5 µM | 346 ± 9 µM | 85% | 12 | 2.5 ± 1 µM |  |  |  | IC50 [2]: 4.3 µM; reduction of parasitemia ([3]; oral, same dose as in the Leishmaniasis in vivo assay): more than 60%; survival ([3]; mean 60% survival in untreated group): 100%; AMES test, mutagenic capacity ([8]; previous works, ref [13],[16]): negative; acute toxicity LD50 ([9]; previously evaluated, ref [13],[16]): > 2000 mg/kg of weight; Acute oral toxicity LD50 ([9]; ref [13],[14],[15]): ^d LD50 > 2000 mg/kg in mice; EC50 ([10]; Table 3, thiazolidene hydrazines): 5 ± 1 µM; EC50 ([11]; Table 3, thiazolidene hydrazines, ref [13],[16],[19],[23],[25]): 4 ± 1 µM; leishmanicidal activity in vivo ([12]; half the dose of 796): low; EC50 ([15]; Table 3, thiazolidene hydrazines, ref [13],[16],[19],[23],[25], read-out: EC50 ± SD T. cruzi): 3.1 ± 0.2 µM; EC50 ([15]; amastigotes, multiple strains, ref [13],[14],[15], read-out: EC50 in vitro anti-T. cruzi, amastigotes): 0.72 µM; micronucleus test, genotoxicity ([17]; previous works, ref [13],[16]): not genotoxic; Micronucleus test in mice (Genotoxicity) ([17]; ref [13],[14],[15]): No
2 | O=C(/C=C/c1cccs1)/C=C/c1cccs1 [Compound 796] | 100% | did not see any inhibition | moderate | 5 | 8 ± 2 µM | did not see any inhibition |  | 10 | 4 ± 0.5 µM | 38 ± 7 µM | 158 ± 5 µM | 90% | 4 | 10 ± 2 µM | 4 ± 0.5 µM | 5 ± 0.8 µM | 5 µM | Media Mn/Mouse ± SD (male, CD-1, mouse, in vivo, 150 mg/kg): 5 ± 1; Number EPMn (total polychromatic micronucleated erythrocytes in the 5 assays) (mice, 796 150 mg/kg oral, Cyclophosphamide intraperitoneal positive control, 5000 EPC observed): 21; inhibition at 50 µM [20]: 61%; EC50 ([10]; Table 4, curcuminoids): 0.6 ± 0.1 µM; % of suppression of the parasites ([12]; parasite load in lesion, 796 at 203 µmol/kg, other molecules at half that dose): more than 50%; diameter of the paw ([12]; when treatment begins (Figure 2C)): begins to decrease; LD50 at 14 days [21]: > 2000 mg/kg; inhibition at 50 µM [22]: 42.5%; metabolic stability: time compound detected / degraded [23]: ≥ 4 h
3 | O=C1/C(=C/C=C/c2ccco2)CCC/C1=C\C=C\c1ccco1 [Compound 1019] |  |  | low |  | 7 ± 1 µM |  | no |  | < 0.3 µM |  |  |  |  |  | 13 ± 7 µM | 0.6 ± 0.2 µM | 0.6 µM | IC50 [24]: 0.086 µM; trypanosomicidal effect on T. brucei [10]: no trypanosomicidal effect; growth inhibitory / trypanosomicidal effect on the L. infantum canine-derived isolate [19]: no trypanosomicidal effect
